Where two headings read alike, the source gives them in different places.

Holding throughout (assay): Kinase panel profiling at 1 µmol/L (MSA or IMAP), percentage inhibition
What all share (assay type): biochemical

For assay [1], the target named is panel of 255 wild-type kinases (Homo sapiens, UniProt Q9Y463). The following applies: read-out: %-inhibition at 1 µmol/L, DYRK1B.
Assay [2] addresses panel of 255 wild-type kinases (Homo sapiens, UniProt O00311). To be noted: read-out: %-inhibition CDC7/ASK.
For assay [3], the target named is T1, panel of 255 wild-type kinases (Homo sapiens, UniProt P43403).
T1 sequence (P43403 1-619): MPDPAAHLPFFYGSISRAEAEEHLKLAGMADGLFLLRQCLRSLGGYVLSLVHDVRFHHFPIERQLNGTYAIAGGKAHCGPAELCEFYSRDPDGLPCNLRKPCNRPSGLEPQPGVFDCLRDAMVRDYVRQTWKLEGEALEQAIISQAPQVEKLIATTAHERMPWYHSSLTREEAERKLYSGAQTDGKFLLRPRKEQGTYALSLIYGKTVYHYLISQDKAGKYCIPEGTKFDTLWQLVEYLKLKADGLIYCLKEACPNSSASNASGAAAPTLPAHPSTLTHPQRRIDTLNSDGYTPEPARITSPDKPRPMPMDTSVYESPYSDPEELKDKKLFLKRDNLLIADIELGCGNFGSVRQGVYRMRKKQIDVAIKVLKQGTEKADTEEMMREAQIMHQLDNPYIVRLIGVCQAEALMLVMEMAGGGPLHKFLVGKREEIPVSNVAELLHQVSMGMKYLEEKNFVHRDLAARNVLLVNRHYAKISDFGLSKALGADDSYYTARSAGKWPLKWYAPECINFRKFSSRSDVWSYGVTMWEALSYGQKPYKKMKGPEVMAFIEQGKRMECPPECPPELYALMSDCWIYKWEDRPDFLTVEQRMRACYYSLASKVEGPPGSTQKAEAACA
The following applies: read-out: %-inhibition at 1 µmol/L, ZAP70.

In assay [4] the target is panel of 255 wild-type kinases (Homo sapiens, UniProt P51617). The following applies: read-out: %-inhibition at 1 µmol/L, IRAK1.
In assay [5] the target is panel of 255 wild-type kinases (Homo sapiens, UniProt Q15349). To be noted: read-out: %-inhibition at 1 µmol/L, RSK3.
For assay [6], the target named is T2, panel of 255 wild-type kinases (Homo sapiens, UniProt P42680).
T2 sequence (P42680 1-631): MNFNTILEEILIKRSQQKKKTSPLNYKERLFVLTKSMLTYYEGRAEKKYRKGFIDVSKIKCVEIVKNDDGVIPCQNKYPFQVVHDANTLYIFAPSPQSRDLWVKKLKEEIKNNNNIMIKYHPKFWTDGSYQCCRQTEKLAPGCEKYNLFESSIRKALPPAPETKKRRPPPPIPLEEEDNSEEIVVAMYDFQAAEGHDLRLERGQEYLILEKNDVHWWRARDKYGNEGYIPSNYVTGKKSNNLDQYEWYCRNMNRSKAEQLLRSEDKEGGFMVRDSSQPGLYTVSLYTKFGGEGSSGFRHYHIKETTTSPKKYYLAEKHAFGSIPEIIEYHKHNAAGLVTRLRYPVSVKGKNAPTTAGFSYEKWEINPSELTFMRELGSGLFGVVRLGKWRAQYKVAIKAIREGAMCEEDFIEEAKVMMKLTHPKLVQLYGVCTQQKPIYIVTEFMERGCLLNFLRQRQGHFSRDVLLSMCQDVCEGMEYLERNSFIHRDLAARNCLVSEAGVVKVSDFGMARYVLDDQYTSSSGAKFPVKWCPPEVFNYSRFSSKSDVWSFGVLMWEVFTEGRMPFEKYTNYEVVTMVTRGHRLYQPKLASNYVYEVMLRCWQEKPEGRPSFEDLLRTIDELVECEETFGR
The following applies: read-out: %-inhibition at 1 µmol/L, TEC.

The target in assay [7] is panel of 255 wild-type kinases (Homo sapiens, UniProt O14578). To be noted: read-out: %-inhibition at 1 µmol/L, CRIK.
The target in assay [8] is T3, panel of 255 wild-type kinases (Homo sapiens, UniProt P54762).
T3 sequence (P54762 18-984): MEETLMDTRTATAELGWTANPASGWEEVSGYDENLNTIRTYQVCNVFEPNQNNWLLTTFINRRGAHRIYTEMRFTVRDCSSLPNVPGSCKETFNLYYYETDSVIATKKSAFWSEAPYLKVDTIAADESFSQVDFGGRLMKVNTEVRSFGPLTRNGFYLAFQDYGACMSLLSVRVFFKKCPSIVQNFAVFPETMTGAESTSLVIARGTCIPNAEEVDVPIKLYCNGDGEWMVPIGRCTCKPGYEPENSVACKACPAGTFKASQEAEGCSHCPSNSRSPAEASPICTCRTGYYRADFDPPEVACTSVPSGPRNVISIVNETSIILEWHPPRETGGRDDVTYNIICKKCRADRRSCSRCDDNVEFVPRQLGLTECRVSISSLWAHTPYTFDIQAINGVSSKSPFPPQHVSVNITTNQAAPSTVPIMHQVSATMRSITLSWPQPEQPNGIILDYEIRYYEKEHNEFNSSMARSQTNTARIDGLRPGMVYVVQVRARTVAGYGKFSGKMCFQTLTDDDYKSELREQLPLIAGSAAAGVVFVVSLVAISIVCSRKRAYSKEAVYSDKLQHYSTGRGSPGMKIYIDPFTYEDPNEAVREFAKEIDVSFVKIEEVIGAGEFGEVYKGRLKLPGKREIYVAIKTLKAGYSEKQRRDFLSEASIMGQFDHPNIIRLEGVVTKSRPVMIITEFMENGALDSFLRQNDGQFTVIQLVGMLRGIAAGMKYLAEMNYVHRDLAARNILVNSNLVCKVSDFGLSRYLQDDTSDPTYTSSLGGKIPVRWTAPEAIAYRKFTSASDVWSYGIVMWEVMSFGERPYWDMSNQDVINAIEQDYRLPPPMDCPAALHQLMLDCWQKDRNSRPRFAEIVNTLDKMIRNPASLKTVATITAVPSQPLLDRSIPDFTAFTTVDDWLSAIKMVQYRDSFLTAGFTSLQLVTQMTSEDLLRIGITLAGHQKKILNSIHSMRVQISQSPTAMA
To be noted: read-out: %-inhibition at 1 µmol/L, EPHB1.

In assay [9] the target is panel of 255 wild-type kinases (Homo sapiens, UniProt Q9UPE1). To be noted: read-out: %-inhibition, MSSK1.
Setting [10] is: kinase DYRK1B, 1 µmol/L single concentration.
Where [11] appears, read: CDC7/ASK kinase assay, 1 µmol/L single concentration.
[12] abbreviates: kinase ZAP70, 1 µmol/L single concentration.
Setting [13] is: kinase IRAK1, 1 µmol/L single concentration.
The mark [14] stands for this setting: kinase RSK3, 1 µmol/L single concentration.
The mark [15] stands for this setting: kinase TEC, 1 µmol/L single concentration.
Where [16] appears, read: kinase CRIK, 1 µmol/L single concentration.
Where [17] appears, read: kinase EPHB1, 1 µmol/L single concentration.
Setting [18] is: MSSK1, 1 µmol/L single concentration.

In the case of `Cc1nc(NC(=O)N2CCC[C@H]2C(N)=O)sc1-c1ccnc(C(C)(C)C(F)(F)F)c1` [alpelisib], the inhibition at 1 µM in assay [1] (setting [10]) is 8%; in assay [2] (setting [11]) it was -0.499%; in [3] (setting [12]) it was 1.11%; in assay [4] (setting [13]) it was -5.3%; in [5] (setting [14]), -1.47%; in [6] (setting [15]) it was -0.644%. The inhibition at 1 µM in [7] (setting [16]) is -5.56%; in assay [8] (setting [17]), 8%; in assay [9] (setting [18]), -3.38%.

In the case of `Cn1cc(-c2cc3c(N4CCN(c5ncc([C@@](C)(N)c6ccc(F)cc6)cn5)CC4)ncnn3c2)cn1` [avapritinib], the inhibition at 1 µM was 47% in assay [1] (setting [10]); 0.0396% in [2] (setting [11]); 13% in [3] (setting [12]); 8% in [4] (setting [13]); 10% in assay [5] (setting [14]); 16% in assay [6] (setting [15]). For the same compound, the values for the inhibition at 1 µM in assay [7] (setting [16]), in [8] (setting [17]) and in assay [9] (setting [18]) were -0.548%, 65% and 0.0476%, respectively.

On to `Cn1cnc2c(F)c(Nc3ccc(Br)cc3F)c(C(=O)NOCCO)cc21` [binimetinib], for which the inhibition at 1 µM was -7% in [1] (setting [10]); -0.214% in assay [2] (setting [11]); -1.09% in assay [3] (setting [12]); 2.19% in assay [4] (setting [13]); -5% in [5] (setting [14]); 0.674% in assay [6] (setting [15]). Further, the inhibition at 1 µM in assay [7] (setting [16]) is -3.44%; in [8] (setting [17]), 2%; in [9] (setting [18]), -4.37%.

`CNC(=O)c1ccc(-c2cnc3ncc(Cc4ccc5ncccc5c4)n3n2)cc1F` [capmatinib]: the inhibition at 1 µM is 1.71% in [1]; -1.4% in assay [2]; 4% in [3]; 35% in [4]; 5% in assay [5]; 4% in assay [6]. Besides, the inhibition at 1 µM was -4.75% in assay [7], -1.63% in assay [8] and -3.24% in [9].

Take `COc1cc2ncnc(Nc3ccc(F)c(Cl)c3)c2cc1NC(=O)/C=C/CN1CCCCC1` [dacomitinib]: the inhibition at 1 µM in assay [1] (setting [10]) was 7%; in assay [2] (setting [11]), 0.799%; in assay [3] (setting [12]) it was -4%; in assay [4] (setting [13]), 76%; in [5] (setting [14]), 27%; in [6] (setting [15]), 20%. The inhibition at 1 µM in assay [7] (setting [16]) was found to be 32%; in [8] (setting [17]), 45%; in assay [9] (setting [18]) it was 0.445%.

Consider `C[C@H](Nc1ncnc2nc[nH]c12)c1cc2cccc(Cl)c2c(=O)n1-c1ccccc1` [duvelisib], for which the inhibition at 1 µM in [1] (setting [10]) is -0.692%; in assay [2] (setting [11]), 0.486%; in assay [3] (setting [12]), 2%; in assay [4] (setting [13]) it was -8%; in [5] (setting [14]) it was -0.46%; in assay [6] (setting [15]), 1.84%. For the same compound, the inhibition at 1 µM in [7] (setting [16]) was -3.16%; in assay [8] (setting [17]), 10%; in assay [9] (setting [18]) it was -2.73%.

As for `COC(=O)N[C@@H](C)CNc1nccc(-c2cn(C(C)C)nc2-c2cc(Cl)cc(NS(C)(=O)=O)c2F)n1` [encorafenib], the inhibition at 1 µM was -3.42% in [1] (setting [10]); -4.28% in [2] (setting [11]); 0.195% in assay [3] (setting [12]); 21% in assay [4] (setting [13]); -3.36% in assay [5] (setting [14]); -1.53% in assay [6] (setting [15]). Further, the inhibition at 1 µM in assay [7] (setting [16]) was 2.72%; in assay [8] (setting [17]), 3%; in [9] (setting [18]) it was 1.39%.

`CN1CCN(c2ccc(C(=O)Nc3n[nH]c4ccc(Cc5cc(F)cc(F)c5)cc34)c(NC3CCOCC3)c2)CC1` [entrectinib]: the inhibition at 1 µM in [1] (setting [10]) was 6%; in assay [2] (setting [11]), 0.952%; in [3] (setting [12]) it was 2.19%; in assay [4] (setting [13]) it was 16%; in [6] (setting [15]), 97%; in assay [7] (setting [16]) it was -9%. In addition, the inhibition at 1 µM in [8] (setting [17]) came out at 62%; in assay [9] (setting [18]), 12%.

For `CCc1nc(C(N)=O)c(Nc2ccc(N3CCC(N4CCN(C)CC4)CC3)c(OC)c2)nc1NC1CCOCC1` [gilteritinib], the inhibition at 1 µM in assay [1] (setting [10]) came out at 34%; in [2] (setting [11]) it was 3%; in assay [3] (setting [12]), 46%; in assay [4] (setting [13]), 84%; in assay [5] (setting [14]), 64%; in assay [6] (setting [15]), 44%. The inhibition at 1 µM in assay [7] (setting [16]) was determined as 75%; in assay [8] (setting [17]) it was 87%; in assay [9] (setting [18]), 22%.

Regarding `CCN1CCN(c2ccc(Nc3cc(N(C)C(=O)Nc4c(Cl)c(OC)cc(OC)c4Cl)ncn3)cc2)CC1` [infigratinib], the inhibition at 1 µM in assay [1] (setting [10]) was -2.3%; in assay [2] (setting [11]), -2%; in [3] (setting [12]), -2.77%; in assay [5] (setting [14]) it was -0.616%; in assay [6] (setting [15]), 7%; in assay [7] (setting [16]) it was -2.56%. The values for the inhibition at 1 µM in assay [8] (setting [17]) and in [9] (setting [18]) were 2.8% and -2.83%, respectively.
